Measurements reported in patent US9889115B2, “Fitness assay and associated methods” (priority 1998, dated 2018).

How the values were obtained:
HIV-1BAL = test: PHA-PBMC assay, p24 Gag protein production; type: cell-based; details: HIV-1Ba-L; PBMC/p24, day 7 (Table 8)
HIV-1LAI [1] = test: PHA-PBMC assay, p24 Gag protein production; type: cell-based; details: HIV-1LAI; PBMC/p24, day 7 (Table 8)
HIV-1LAI [2] = test: MT-2 cells, MTT assay; type: cell-based; details: HIV-1LAI; MT-2/MTT, day 7
Procedure: All drug sensitivities were performed in triplicate. […] The IC50's were determined using the MTT assay on day 7 of culture. All sensitivities were determined in […].

HIV-1 protease G48V/V82A = biological target: T1, HIV-1 protease G48V/V82A (Human immunodeficiency virus type 1 group M subtype B, UniProt P04585, G536V/V570A); test: continuous fluorogenic HIV protease assay; type: biochemical; details: for KI-wt/KI-mut / Ki: G48V/V82A; for Fitness: G48V/V82A relative to WT
T1 construct: proteases containing the deleterious drug resistance associated mutations V82F/I84V and G48V/V82A
Procedure: This example describes the protocol for the sensitive continuous fluorogenic assay for HIV protease of the present invention and its application. […] 21702-1201, upon written request. The inhibition constant for wild-type HIV-1, Kimnt/Kiwt ratio, and vitality were measured. (See Gulnik et al., Biochemistry, 34, 9282-9287 (1995). Protease activity was measured using the fluorgenic substrate Lys-Ala-Arg-Val-Tyr-Phe(NO2)-Glu-Ala-Nle-NH2 (Bachem Bioscience, Inc.). (See Peranteau et al., D.H. (1995) Anal. Biochem.).
The reaction was initiated by the addition of 5 μl of substrate stock solution in water. Increase in fluorescence intensity at the emission maximum of 306 nm (excitation wavelength was 277 nm) was monitored as a function of time using Aminco Bowman-2 luminescence spectrometer (SLM Instruments, Inc.). The initial rate of hydrolysis was calculated by second degree polynomial fit using SLM AB2 2.0 operating software.
For inhibition studies, inhibitors were prepared as stock solutions at different concentrations in dimethylsulfoxide. […] The reaction was initiated by the addition of 5 μl of substrate stock solution in water. For data analysis, the mathematical model for tight-binding inhibitors was used. (See Williams and Morrison (1979), In: Methods of Enzymol. 63, (ed. D. L. Purich), 437-467, Academic Press, NY, London). […]
This example describes the inhibitory activity of compounds 35 (FIG. 5A), 36 (FIG. 5B), 37 (FIG. 5C) and 38 (FIG. 5D). In accordance with the technique disclosed in Example 13 above, the inhibitory activity of these compounds was tested against proteases of the wild-type HIV-1. Compound 36, 37 and 38 were also tested against proteases containing the deleterious drug resistance associated mutations V82F/I84V and G48V/V82A. Fitness was determined in accordance with Example 13.

HIV-1 protease V82F/I84V [3] = test: continuous fluorogenic HIV protease assay; type: biochemical; details: for KI-wt/KI-mut: V82F/I84V (Table 7); for Fitness: V82F/I84V relative to WT (Table 7)
Procedure: (§1) This example describes the protocol for the sensitive continuous fluorogenic assay for HIV protease of the present invention and its application. […] The inhibition constant for wild-type HIV-1, Kimnt/Kiwt ratio, and vitality were measured.
(§2) The reaction was initiated by the addition of 5 μl of substrate stock solution in water. […] The initial rate of hydrolysis was calculated by second degree polynomial fit using SLM AB2 2.0 operating software.
(§3) For inhibition studies, inhibitors were prepared as stock solutions at different concentrations in dimethylsulfoxide. […] The reaction was initiated by the addition of 5 μl of substrate stock solution in water. For data analysis, the mathematical model for tight-binding inhibitors was used.

HIV-1 protease V82F/I84V [4] = biological target: T2, HIV-1 protease V82F/I84V (Human immunodeficiency virus type 1 group M subtype B, UniProt P04585, I572V/V570F); test: continuous fluorogenic HIV protease assay; type: biochemical; details: V82F/I84V (Table 7)
T2 construct: the proteases of wild-type HIV-1 (WT) and various mutant enzymes
Procedure: as §1, §2, §3

[5] = biological target: T3, wild-type HIV-1 (WT) protease (Human immunodeficiency virus type 1 group M subtype B, UniProt P04585); test: continuous fluorogenic HIV protease assay; type: biochemical; details: WT (Table 7)
T3 construct: the proteases of wild-type HIV-1 (WT)
Procedure: as §1, §2, §3

SMILES: CC(C)CN(C[C@@H](O)[C@H](Cc1ccccc1)NC(=O)O[C@H]1CO[C@H]2OCC[C@H]21)S(=O)(=O)c1cccc(CO)c1 [Compound 38]
- IC50 (HIV-1BAL): 9.3 nM
- IC50 (HIV-1LAI [1]): 8 nM
- IC50 (HIV-1LAI [2]): 28 nM
- KI-wt/KI-mut (HIV-1 protease G48V/V82A): >6.8
- Ki (HIV-1 protease G48V/V82A): 0.034 nM
- Fitness (HIV-1 protease G48V/V82A): >1.8
- KI-wt/KI-mut (HIV-1 protease V82F/I84V [3]): >13
- Fitness (HIV-1 protease V82F/I84V [3]): >2.1
- Ki (HIV-1 protease V82F/I84V [4]): 0.0668 nM
- Ki [5]: > 0.005 nM

SMILES: CC(C)CN(C[C@@H](O)[C@H](Cc1ccccc1)NC(=O)O[C@H]1CO[C@H]2OCC[C@H]21)S(=O)(=O)c1ccc(CO)cc1 [Compound 37]
- IC50 (HIV-1BAL): 3 nM
- IC50 (HIV-1LAI [1]): 2.7 nM
- IC50 (HIV-1LAI [2]): 5.3 nM
- KI-wt/KI-mut (HIV-1 protease G48V/V82A): 5.3
- Ki (HIV-1 protease G48V/V82A): 0.064 nM
- Fitness (HIV-1 protease G48V/V82A): 1.4
- KI-wt/KI-mut (HIV-1 protease V82F/I84V [3]): 2.1
- Fitness (HIV-1 protease V82F/I84V [3]): 0.3
- Ki (HIV-1 protease V82F/I84V [4]): 0.0257 nM
- KI-wt/KI-mut [5]: 1
- Ki [5]: 0.012 nM

SMILES: CC(C)CN(C[C@@H](O)[C@H](Cc1ccccc1)NC(=O)O[C@H]1CO[C@H]2OCC[C@H]21)S(=O)(=O)c1ccc(CN)cc1 [Compound 35]
- IC50 (HIV-1BAL): 13 nM
- IC50 (HIV-1LAI [1]): 20 nM
- IC50 (HIV-1LAI [2]): 28 nM
- KI-wt/KI-mut [5]: 1
- Ki [5]: 0.081 nM
